Data published in patent publication US8367328B2, “Method for synthesizing DNA” (Takara Bio Inc., priority 1998, dated 2013).

Columns and labels:
Pfu DNA Polymerase II = biological target: T1, Pfu DNA Polymerase II (Pyrococcus furiosus, UniProt P81409+P81412); assay: PCR with Pfu DNA Polymerase II in the presence of acidic substances (λDNA template); type: biochemical; settings: 0.5 kb fragment; 100 pg λDNA, primers λ1/λ2, 25 cycles 98°C 5 s–66°C 15 s; amount added 10 ng
T1 construct: made in house; host or cells: Escherichia coli JM109/pFU1001 (FERM BP-5579)
T1 sequence (P81409 1-1263): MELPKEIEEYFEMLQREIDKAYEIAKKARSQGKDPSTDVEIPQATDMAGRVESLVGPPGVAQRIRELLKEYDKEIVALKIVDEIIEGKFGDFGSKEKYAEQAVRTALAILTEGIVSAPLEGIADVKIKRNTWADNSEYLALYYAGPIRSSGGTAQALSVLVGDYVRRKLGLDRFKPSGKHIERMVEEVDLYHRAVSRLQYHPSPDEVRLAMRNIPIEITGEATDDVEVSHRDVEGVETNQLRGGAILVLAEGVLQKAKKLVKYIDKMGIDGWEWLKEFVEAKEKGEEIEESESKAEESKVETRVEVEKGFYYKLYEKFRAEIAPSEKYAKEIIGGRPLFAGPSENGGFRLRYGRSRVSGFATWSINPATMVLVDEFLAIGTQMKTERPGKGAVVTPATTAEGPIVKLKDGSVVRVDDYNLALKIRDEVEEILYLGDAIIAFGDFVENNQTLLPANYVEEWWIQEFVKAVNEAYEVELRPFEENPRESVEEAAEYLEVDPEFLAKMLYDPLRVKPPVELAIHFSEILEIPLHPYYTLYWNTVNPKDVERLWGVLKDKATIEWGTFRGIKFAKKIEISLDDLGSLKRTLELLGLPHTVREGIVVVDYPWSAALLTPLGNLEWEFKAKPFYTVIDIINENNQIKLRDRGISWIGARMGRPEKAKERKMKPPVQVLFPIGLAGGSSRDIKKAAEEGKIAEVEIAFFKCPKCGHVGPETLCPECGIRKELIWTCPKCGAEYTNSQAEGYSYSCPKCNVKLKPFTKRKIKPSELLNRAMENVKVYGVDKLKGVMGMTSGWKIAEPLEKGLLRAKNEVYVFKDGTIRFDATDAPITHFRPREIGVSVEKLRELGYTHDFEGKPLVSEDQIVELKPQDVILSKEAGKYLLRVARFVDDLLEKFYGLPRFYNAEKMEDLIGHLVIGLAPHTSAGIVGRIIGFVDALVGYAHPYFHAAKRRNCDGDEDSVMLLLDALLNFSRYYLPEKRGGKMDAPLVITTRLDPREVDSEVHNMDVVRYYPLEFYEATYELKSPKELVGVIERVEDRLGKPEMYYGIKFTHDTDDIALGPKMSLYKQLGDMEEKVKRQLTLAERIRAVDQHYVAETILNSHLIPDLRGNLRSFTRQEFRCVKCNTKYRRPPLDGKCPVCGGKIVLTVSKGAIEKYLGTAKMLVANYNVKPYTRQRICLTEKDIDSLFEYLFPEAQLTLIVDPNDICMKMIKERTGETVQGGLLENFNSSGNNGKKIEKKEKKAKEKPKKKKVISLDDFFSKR
T1 sequence (P81412 1-613): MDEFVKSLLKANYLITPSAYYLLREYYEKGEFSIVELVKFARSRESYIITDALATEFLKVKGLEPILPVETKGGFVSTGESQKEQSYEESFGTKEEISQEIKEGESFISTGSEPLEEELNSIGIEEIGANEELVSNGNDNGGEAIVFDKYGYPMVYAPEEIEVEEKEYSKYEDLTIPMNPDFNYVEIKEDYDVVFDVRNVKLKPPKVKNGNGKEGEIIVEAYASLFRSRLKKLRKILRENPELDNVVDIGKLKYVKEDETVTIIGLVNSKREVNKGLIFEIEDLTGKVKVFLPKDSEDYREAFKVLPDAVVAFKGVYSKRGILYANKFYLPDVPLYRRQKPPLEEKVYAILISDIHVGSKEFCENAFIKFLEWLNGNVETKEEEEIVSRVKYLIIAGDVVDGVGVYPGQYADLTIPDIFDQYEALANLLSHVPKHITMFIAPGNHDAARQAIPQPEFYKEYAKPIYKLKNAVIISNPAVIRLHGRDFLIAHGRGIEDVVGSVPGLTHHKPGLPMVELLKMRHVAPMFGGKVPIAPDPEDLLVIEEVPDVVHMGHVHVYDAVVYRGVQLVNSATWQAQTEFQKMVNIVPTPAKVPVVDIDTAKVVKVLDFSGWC
Procedure: A reaction mixture comprising λDNA as a template, primers λ1 and λ3 as a primer pair, and Pfu DNA Polymerase II as DNA polymerase was prepared, and PCR was carried out. The composition of the reaction mixture is as follows.
10 mM Tris-hydrochloric acid (pH 9.2), 75 mM potassium chloride, 6 mM magnesium chloride, 0.4 mM each of dATP, dCTP, dGTP and dTTP, 0.01% BSA, 1.25 U of Pfu DNA Polymerase II, 500 pg of λDNA, and 5 pmol each of primers λ1 and λ3 (a final volume being 25 μl). […]
Using the sulfated-fucose-containing Polysaccharide-F obtained in Example 6 described above, dextran sulfate powder (manufactured by Onco), or sodium alginate (100 to 150 centipoises, manufactured by Wako Pure Chemicals), the effects of these acidic substances on the activity of Pfu DNA Polymerase II were examined. A reaction mixture comprising λDNA as a template, primers λ1 and λ2 as a primer pair, and Pfu DNA Polymerase II as DNA polymerase was prepared, and PCR was carried out. The composition of the reaction mixture is as follows.
(§1) 10 mM Tris-hydrochloric acid, pH 9.2, 75 mM potassium chloride, 6 mM magnesium chloride, 0.4 mM each of dATP, dCTP, dGTP and dTTP, 0.01% BSA, 1.25 U of Pfu DNA Polymerase II, 100 pg of λDNA, and 5 pmol each of primers λ1 and λ2 (a final volume being 25 μl). Further, 10 ng of the sulfated-fucose-containing polysaccharide-F, 10 ng of dextran sulfate powder, or 1 μg of sodium alginate was respectively added to the above reaction mixture.
(§2) The reaction in 25 cycles was carried out for each of these reaction mixtures, wherein one cycle of reaction comprises a process consisting of 98° C., 5 seconds—66° C., 15 seconds. Thereafter, 5 μl of the resulting reaction mixture was subjected to electrophoresis on 1% agarose gel containing ethidium bromide in an amount of 0.00005%, whereby an amplified fragment was confirmed.
Further, studies were conducted on the effects of the sulfated-fucose-containing polysaccharide-F obtained in Example 6 described above, the sulfated-fucose-containing polysaccharide-U obtained in Example 7 described above, or sodium polyglutamate (manufactured by Sigma) as an acidic substance. A reaction mixture for PCR was prepared in the same manner as described above except for changing the amount of template λDNA to 500 pg and the primer pairs to primers λ1 and λ3. Five nanograms of the sulfated-fucose-containing polysaccharide-F, 5 ng, 10 ng, 20 ng or 30 ng each of the sulfated-fucose-containing polysaccharide-U, or 250 ng, 500 ng, 750 ng or 1000 ng each of sodium polyglutamate was respectively added to the above reaction mixture.
as §2, with “reaction” for “reaction in 25 cycles”, “in 30 cycles,” for “for each of these reaction mixtures,”, “After the termination of the reaction,” for “Thereafter,”
Using the sulfated-fucose-containing polysaccharide-F obtained in Example 6 described above, the effects on the activity of Pfu DNA Polymerase II were examined. A reaction mixture comprising λDNA as a template, primers λ1 and λ2 as a primer pair, and Pfu DNA Polymerase II as DNA polymerase was prepared, and PCR was carried out. The composition of the reaction mixture is as follows.
as §1, with “500” for “100”, “polysaccharide-F” for “polysaccharide-F, 10 ng of dextran sulfate powder, or 1 μg of sodium alginate”
The reaction in 30 cycles was carried out for each of these reaction mixtures, wherein one cycle of reaction comprises a process consisting of 98° C., 5 seconds—66° C., 15 seconds. […]

KOD DNA Polymerase = biological target: T2, KOD DNA Polymerase (Thermococcus kodakarensis, UniProt P77933, DEL407-766/DEL852-1388); assay: PCR with KOD DNA Polymerase (α-type) in the presence of acidic substances; type: biochemical, Pyrococcus sp.; settings: 10 kb fragment, 100 pg λDNA, 30 cycles 98°C 5 s–68°C 3 min
T2 construct: purchased TOYOBO CO., LTD
T2 sequence (P77933 other isoform, or with tags, fused parts or gaps DEL407-766/DEL852-1388): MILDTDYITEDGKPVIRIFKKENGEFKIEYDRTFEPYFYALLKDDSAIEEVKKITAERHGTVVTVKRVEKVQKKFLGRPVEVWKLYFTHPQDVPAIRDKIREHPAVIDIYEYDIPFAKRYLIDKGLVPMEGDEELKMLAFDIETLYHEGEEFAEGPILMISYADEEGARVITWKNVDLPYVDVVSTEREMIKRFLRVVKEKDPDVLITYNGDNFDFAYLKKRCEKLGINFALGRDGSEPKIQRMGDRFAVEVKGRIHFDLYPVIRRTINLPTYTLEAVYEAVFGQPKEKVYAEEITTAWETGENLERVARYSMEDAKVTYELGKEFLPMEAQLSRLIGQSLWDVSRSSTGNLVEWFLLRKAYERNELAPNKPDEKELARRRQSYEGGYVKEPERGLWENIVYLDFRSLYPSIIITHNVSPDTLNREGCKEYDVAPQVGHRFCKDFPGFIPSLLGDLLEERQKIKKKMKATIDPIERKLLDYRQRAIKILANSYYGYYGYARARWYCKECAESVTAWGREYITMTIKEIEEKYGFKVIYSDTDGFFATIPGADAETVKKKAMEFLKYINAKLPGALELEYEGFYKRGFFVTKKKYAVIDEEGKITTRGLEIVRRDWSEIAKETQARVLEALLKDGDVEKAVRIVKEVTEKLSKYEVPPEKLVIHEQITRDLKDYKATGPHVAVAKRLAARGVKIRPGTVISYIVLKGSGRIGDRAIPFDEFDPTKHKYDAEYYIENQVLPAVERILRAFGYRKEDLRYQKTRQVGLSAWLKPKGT
Procedure: (1) Using sodium alginate, sodium hyaluronate (manufactured by Seikagaku Kogyo), or κ carrageenan (manufactured by Sigma), the effects of these acidic substances on α-type DNA polymerase were examined. A reaction mixture comprising λDNA as a template, primers λ1 and λ8 as a primer pair, and KOD DNA Polymerase (manufactured by TOYOBO CO., LTD.) as DNA polymerase was prepared, and PCR was carried out. The composition of the reaction mixture is as follows. Composition of Reaction Mixture: KOD DNA Polymerase Buffer I (manufactured by TOYOBO CO., LTD.) 0.2 mM each of dATP, dCTP, dGTP and dTTP, 0.625 U of KOD DNA Polymerase, 100 pg of λDNA, and 5 pmol each of primers λ1 and λ8 (a final volume being 25 μl). Further, 1 μg or 2.5 μg of sodium alginate, 0.1 μg or 0.5 μg of sodium hyaluronate, or 0.1 μg or 0.25 μg of κ carrageenan was respectively added to the above reaction mixture.
as §2, with “30” for “25”, “seconds—68°” for “seconds—66°”, “3 minutes.” for “15 seconds.”
(2) The effects on α-type DNA polymerase were also examined in the same manner as in item (1) above for sodium alginate, κ carrageenan, sodium heparan sulfate (manufactured by Sigma), sodium dermatan sulfate (manufactured by Sigma), potassium polyvinyl sulfate (manufactured by nacalaitesque) or sodium polystyrenesulfonate (two kinds: average molecular weights of 5,400 and 35,000, all manufactured by nacalaitesque). A reaction mixture comprising λDNA as a template, primers λ1 and λ8 as a primer pair, and KOD DNA Polymerase as DNA polymerase was prepared, and PCR was carried out. The composition of the reaction mixture is as follows. Composition of Reaction Mixture: KOD DNA Polymerase Buffer II (manufactured by TOYOBO CO., LTD.) 0.2 mM each of dATP, dCTP, dGTP and dTTP, 1.25 U of KOD DNA Polymerase, 100 pg of λDNA, and 10 pmol each of primers λ1 and λ8 (a final volume being 50 μl). Further, 2.5 μg or 5 μg of sodium alginate, 0.25 μg or 0.5 μg of κ carrageenan, or 125 ng, 250 ng or 375 ng of sodium dermatan sulfate, 500 ng of sodium heparan sulfate, 10 ng of potassium polyvinyl sulfate, 2.5 ng or 5 ng of sodium polystyrenesulfonate (average molecular weight: 5,400), or 5 ng of sodium polystyrenesulfonate (average molecular weight: 35,000) was respectively added to the above reaction mixture.

[1] = Buffer I, 0.625 U KOD, primers λ1/λ8, 25 μl, amount added 0.1 μg

For “dextran sulfate [Dextran Sulfate Powder]”, the “Amplification Results” value (Pfu DNA Polymerase II) was “+ (Amplification being observed)”.
In the case of sodium dermatan sulfate, the “Amplification Results” value (KOD DNA Polymerase; Buffer II, 1.25 U KOD, primers λ1/λ8, 50 μl, amount added 125 ng) is reported as “+ (Amplification being observed)”, the “Amplification Results” value (KOD DNA Polymerase; Buffer II, 1.25 U KOD, primers λ1/λ8, 50 μl, amount added 250 ng) is reported as “+ (Amplification being observed)” and the “Amplification Results” value (KOD DNA Polymerase; Buffer II, 1.25 U KOD, primers λ1/λ8, 50 μl, amount added 375 ng) is reported as “+ (Amplification being observed)”.
In the case of sodium heparan sulfate, the “Amplification Results” value (KOD DNA Polymerase; Buffer II, 1.25 U KOD, primers λ1/λ8, 50 μl, amount added 500 ng) is reported as “+ (Amplification being observed)”.
In the case of sodium hyaluronate, the “Amplification Results” value (KOD DNA Polymerase; [1]) is reported as “+ (Amplification being observed)” and the “Amplification Results” value (KOD DNA Polymerase; Buffer I, 0.625 U KOD, primers λ1/λ8, 25 μl, amount added 0.5 μg) is reported as “+ (Amplification being observed)”.
For κ carrageenan, the “Amplification Results” value (KOD DNA Polymerase; [1]) was “+ (Amplification being observed)”, the “Amplification Results” value (KOD DNA Polymerase; Buffer I, 0.625 U KOD, primers λ1/λ8, 25 μl, amount added 0.25 μg) was “+ (Amplification being observed)” and the “Amplification Results” value (KOD DNA Polymerase; Buffer II, 1.25 U KOD, primers λ1/λ8, 50 μl, amount added 0.25 μg) was “++ (Intensive amplification being observed)”. For the same substance, the “Amplification Results” value (KOD DNA Polymerase; Buffer II, 1.25 U KOD, primers λ1/λ8, 50 μl, amount added 0.5 μg) was “++ (Intensive amplification being observed)”.
